The first assay addresses human IRAK4 (Homo sapiens (Human), UniProt Q9NWZ3). The assay can be described thus: IRAK4 kinase inhibition, Transcreener fluorescence polarization (ADP). The assay is classed as biochemical.
Details: not given
The method, then: Compounds were assayed for inhibition of human IRAK4 and IRAK1 catalytic activity using recombinant enzyme produced from insect cells. Full-length IRAK4 protein, carrying an N-terminal His6-Tag, was obtained from Life Technologies (Carlsbad, Calif., USA). The IRAK1 construct was produced internally and was comprised of IRAK1 residues Arg194 to Ser712, preceded by an NH2-terminal His6 tag and the coding sequence for glutathione-S-transferase.
Kinase activities were assayed using the Transcreener-Fluorecescence polarization platform (BelBrook Labs, Madison, Wis., USA) that measures amounts of the reaction product, ADP.
In general terms: Fluorescence polarisation rises when a labelled molecule tumbles more slowly, as on binding a larger partner.
human IRAK4, sequence (Q9NWZ3 whole entry): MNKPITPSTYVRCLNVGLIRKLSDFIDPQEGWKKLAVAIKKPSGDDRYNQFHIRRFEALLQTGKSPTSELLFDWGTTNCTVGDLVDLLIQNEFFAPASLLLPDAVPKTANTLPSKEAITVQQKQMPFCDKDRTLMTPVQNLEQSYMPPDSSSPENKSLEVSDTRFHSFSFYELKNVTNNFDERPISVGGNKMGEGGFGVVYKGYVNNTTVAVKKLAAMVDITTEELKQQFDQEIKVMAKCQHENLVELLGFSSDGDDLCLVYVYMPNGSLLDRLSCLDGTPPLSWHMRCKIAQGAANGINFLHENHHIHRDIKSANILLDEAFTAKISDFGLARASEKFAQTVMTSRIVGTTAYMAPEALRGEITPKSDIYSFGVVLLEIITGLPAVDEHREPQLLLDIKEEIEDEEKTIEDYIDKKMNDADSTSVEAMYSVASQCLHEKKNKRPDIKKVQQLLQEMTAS
A word on the Ki: it is a dissociation constant, usually derived from enzyme kinetics or from competition with a known ligand. As to `COc1cc2c(cc1NC(=O)c1cnn3ccc(N4C[C@H](N)CC(F)(F)C4)nc13)CC(C)(C)O2` (single isomer, unassigned) [Example 37], the Ki stood at 7.7 nM. `CC1(C)Cc2cc(NC(=O)c3cnn4cccnc34)c(OC[C@@H]3Cc4ccccc4[C@@H]3N)cc2O1` (single isomer, unassigned) [Example 29] displayed a Ki of 780 nM.

The same assay, now with this note: recombinant full-length His6-IRAK4 1.25 nM; 125 uM ATP; 125 uM peptide; 90 min; ATP Km 642 uM; read-out: IRAK4 Ki.
Consider `CC(C)N1Cc2cc(NC(=O)c3cnn4cccnc34)c(C3CC3)cc2C1=O` [Example 97, N-(6-Cyclopropyl-2-isopropyl-1-oxoisoindolin-5-yl)pyrazolo[1,5-a]pyrimidine-3-carboxamide], for which the Ki came to 5.2 nM.

Turning to `CCN1C[C@H](COc2cc3c(cc2NC(=O)c2cnn4cccnc24)CC(C)(C)O3)CC1=O` [Example 22, (R)-N-(6-((1-Ethyl-5-oxopyrrolidin-3-yl)methoxy)-2,2-dimethyl-2,3-dihydrobenzofuran-5-yl)pyrazolo[1,5-a]pyrimidine-3-carboxamide], the Ki is 460 nM. On the same count and under the same terms, as for `CC(C)Oc1cc2c(cc1NC(=O)c1cnn3cccnc13)CN([C@H]1CCOC1)C2=O` [Example 68, (S)-N-(6-Isopropoxy-1-oxo-2-(tetrahydrofuran-3-yl)isoindolin-5-yl)pyrazolo[1,5-a]pyrimidine-3-carboxamide], the figure is 2.5 nM; as for `CC1(C)Cc2cc3c(cc2O1)N1CCN(CCNc2ccn4ncc(c4n2)C(=O)N3)CC1` [Example 45, (5^3E,5^4E)-2^2,2^2-Dimethyl-2^2,2^3-dihydro-3,6-diaza-5(3,5)-pyrazolo[1,5-a]pyrimidina-1(1,4)-piperazina-2(6,5)-benzofuranacyclooctaphan-4-one], 120 nM.

As for `CN1C[C@H](COc2cc3c(cc2NC(=O)c2cnn4cccnc24)CC(C)(C)O3)CC1=O` [Example 24, (R)-N-(2,2-Dimethyl-6-((1-methyl-5-oxopyrrolidin-3-yl)methoxy)-2,3-dihydrobenzofuran-5-yl)pyrazolo[1,5-a]pyrimidine-3-carboxamide], the Ki was determined as 160 nM. Same read-out and setting: as for `Cc1ccc(-c2cc3c(cc2NC(=O)c2cnn4cccnc24)CN(C[C@@H](F)C(C)(C)O)C3=O)nc1` [Example 146, (R)-N-(2-(2-Fluoro-3-hydroxy-3-methylbutyl)-6-(5-methylpyridin-2-yl)-1-oxoisoindolin-5-yl)pyrazolo[1,5-a]pyrimidine-3-carboxamide], the figure is 8.1 nM; as for `CN(C)c1cc2c(cc1NC(=O)c1cnn3cccnc13)CC(C)(C)[C@H]2O` [Example 156, N-[(1R)-6-(Dimethylamino)-1-hydroxy-2,2-dimethyl-indan-5-yl]pyrazolo[1,5-a]pyrimidine-3-carboxamide], 16 nM. For the compound `COCCN1CCN(c2cc3c(cc2NC(=O)c2cnn4cccnc24)CN(C[C@@H](F)C(C)(C)O)C3=O)CC1` [Example 112, (R)-N-(2-(2-Fluoro-3-hydroxy-3-methylbutyl)-6-(4-(2-methoxyethyl)piperazin-1-yl)-1-oxoisoindolin-5-yl)pyrazolo[1,5-a]pyrimidine-3-carboxamide], the Ki amounted to 2.6 nM.

Regarding `CC(C)N1CCN(c2cc3c(cc2NC(=O)c2cnn4cccnc24)CN(C[C@@H](F)C(C)(C)O)C3=O)CC1` [Example 113, (R)-N-(2-(2-Fluoro-3-hydroxy-3-methylbutyl)-6-(4-isopropylpiperazin-1-yl)-1-oxoisoindolin-5-yl)pyrazolo[1,5-a]pyrimidine-3-carboxamide], the Ki was 7.5 nM. Same read-out and setting: the figure for `CC(C)N1Cc2cc(NC(=O)c3cnn4cccnc34)c(N(C)C)c(CO)c2C1=O` [Example 151, N-(6-(Dimethylamino)-7-(hydroxymethyl)-2-isopropyl-1-oxoisoindolin-5-yl)pyrazolo[1,5-a]pyrimidine-3-carboxamide] is 8.2 nM; for `CC(C)(O)[C@H](F)CN1Cc2cc(NC(=O)c3cnn4cccnc34)c(OC(F)F)cc2C1=O` [Example 88, (R)-N-(6-(Difluoromethoxy)-2-(2-fluoro-3-hydroxy-3-methylbutyl)-1-oxoisoindolin-5-yl)pyrazolo[1,5-a]pyrimidine-3-carboxamide] it is 0.5 nM.

These data come from patent publication US11034698B2, “Pyrazolo[ 1,5a]pyrimidine derivatives as IRAK4 modulators” (priority 2017, dated 2021).
